From patent US4041048A, “3,2-Benzoxazepine derivatives” (Gruppo Lepetit S.p.A., priority 1971, dated 1977)

Columns and labels:
central nervous system [1] = assay: Impairment of motor coordination and righting reflex in mice (hypnotic properties); assay type: in vivo; settings: Mus musculus, ip, read-out: ED50, Impairment of motor coordination and righting reflex
Protocol: (§1) Decreasing the spontaneous activity in mice after intraperitoneal administration of an effective amount of the compounds was taken as a measure of the sedative effect, while impairment of motor coordination and righting reflex were related to hypnotic properties. The myorelaxing characteristics were evaluated by considering the body tone, while the anxiety-relieving effect was measured on the basis of the inhibition of the secondary conditioned avoidance response.

central nervous system [2] = assay: Body tone in mice (myorelaxing characteristics); assay type: in vivo; settings: Mus musculus, ip, read-out: ED50, Body tone
Protocol: as §1

central nervous system [3] = assay: Inhibition of secondary conditioned avoidance response in mice (anxiety-relieving effect); assay type: in vivo; settings: Mus musculus, ip, read-out: ED50, Secondary conditioned avoidance response
Protocol: as §1

central nervous system [4] = assay: Decrease of spontaneous activity in mice (sedative effect); assay type: in vivo; settings: Mus musculus, ip, read-out: ED50, Spontaneous activity
Protocol: as §1

[5] = Toxicity, LD50 in mice i.p.; settings: mouse, in vivo, ip
[6] = test system: carrageenin-induced edema; assay: Carrageenin-induced edema test (anti-inflammatory activity); assay type: in vivo; settings: 100 mg/kg p.o., rats
Text: |Carrageenin-induced edema test

[7] = LD50 to which the edema test dose is related; assay type: in vivo; settings: rats

SMILES | ED50 (central nervous system [1]; i.p. in mice) [mg/kg] | ED50 (central nervous system [2]; i.p. in mice) [mg/kg] | ED50 (central nervous system [3]; i.p. in mice) [mg/kg] | ED50 (central nervous system [4]; i.p. in mice) [mg/kg] | LD50 [5] [mg/kg] | % Decrease of the edema [6] [%] | dose of 100 mg/kg per os as fraction of the LD50 value [7] | also measured
CC1NOCCc2ccccc21 (stereo not drawn) [Example 4, 1-Methyl-1,2,4,5-tetrahydro-3,2-benzoxazepine] | 60 | 20 | 60 | 100 | – | – | – | –
CC1c2ccccc2CCON1C(N)=O (stereo not drawn) [Example 6, 2-Carbamyl-1-methyl-1,2,4,5-tetrahydro-3,2-benzoxazepine] | 60 | 80 | 15 | 60 | > 500 | – | – | –
CC1c2ccccc2CCON1C (stereo not drawn) [Example 7, 1,2-Dimethyl-1,2,4,5-tetrahydro-3,2-benzoxazepine] | – | – | – | – | > 500 | 30 | about one-tenth to about one-fifth | –
NC(=O)OCCN1Cc2ccccc2CCO1 [Example 9, 2-(2-Carbamyloxyethyl)-1,2,4,5-tetrahydro-3,2-benzoxazepine] | – | – | – | – | > 500 | – | – | ED50 (central nervous system [1]): 100 mg/kg; ED50 (central nervous system [2]): 300 mg/kg; ED50 (central nervous system [3]): 30 mg/kg; ED50 (central nervous system [4]): 100 mg/kg
CCN(CC)C(=O)N1OCCc2ccccc2C1C (stereo not drawn) [Example 11, 2-Diethylcarbamyl-1-methyl-1,2,4,5-tetrahydro-3,2-benzoxazepine] | – | – | – | – | > 500 | 31 | about one-tenth to about one-fifth | –
CC(C)=CC(=O)N1OCCc2ccccc2C1C (stereo not drawn) [Example 12, 1-Methyl-2-(3-methyl-2-butenoyl)-1,2,4,5-tetrahydro-3,2-benzoxazepine] | – | – | – | – | > 500 | – | – | –
CNC(=O)N1OCCc2ccccc2C1C (stereo not drawn) [Example 15, 1-Methyl-2-methylcarbamyl-1,2,4,5-tetrahydro-3,2-benzoxazepine] | – | – | – | – | > 500 | 31.5 | about one-tenth to about one-fifth | –
CN1Cc2ccccc2CCO1 [Example 16] | 120 | 10 | 40 | 100 | > 500 | 30.5 | about one-tenth to about one-fifth | –
C=CCN1OCCc2ccccc2C1C (stereo not drawn) [Example 17] | – | – | – | – | > 500 | – | – | –
CC(=O)N1OCCc2ccccc2C1C (stereo not drawn) [Example 18, 2-acetyl-1-methyl-1,2,4,5-tetrahydro-3,2-benzoxazepine] | 60 | 200 | 60 | 100 | – | – | – | –
CC1c2ccccc2CCON1C(=O)N1CCOCC1 (stereo not drawn) [Example 24] | – | – | – | – | > 500 | 32 | about one-tenth to about one-fifth | –
